From PMC5974779, “Prediction of Drug-Induced Hepatotoxicity Using Long-Term Stable Primary Hepatic 3D Spheroid Cultures in Chemically Defined Conditions” (Toxicological Sciences, 2018)
Structures can show the parent of a compound that is named as a salt.

Test system: primary human hepatocytes (PHH) 3D spheroids
Settings: not given

Row | Chemically defined spheroids (this study) 20x | Compound
1 | Positive | COCCOC(=O)C1=C(C)NC(C)=C(C(=O)OC(C)C)C1c1cccc([N+](=O)[O-])c1 (centres unmarked) [Nimodipine]
2 | Negative | CC(N/C(=N\C#N)Nc1ccncc1)C(C)(C)C (centres unmarked) [Pinacidil]
3 | Negative | CCN(CC)C(=O)N1CCN(C)CC1 [Diethylcarbamazine]
4 | Positive | NCCCC[C@H](N[C@@H](CCc1ccccc1)C(=O)O)C(=O)N1CCC[C@H]1C(=O)O [Lisinopril]
5 | Negative | CN(C)CCC(c1ccc(Br)cc1)c1ccccn1 (centres unmarked) [Brompheniramine Maleate]
6 | Negative | CCC(=O)OCC(=O)[C@@]1(OC(=O)CC)[C@@H](C)C[C@H]2[C@@H]3CCC4=CC(=O)C=C[C@]4(C)[C@@]3(Cl)[C@@H](O)C[C@@]21C [Beclomethasone Dipropionate]
7 | Negative | C[C@]12CCC(=O)C=C1CC[C@@H]1[C@@H]2[C@@H](O)C[C@@]2(C)[C@H]1CC[C@]2(O)C(=O)CO [Hydrocortisone]

Test system: clinical DILI in man
Settings: in vivo; cited from earlier work

Row | Compound | Classified as | Clinical DILI class (panel heading of Figure 4) | DILI in vivo | FDA (0-8) | FDA (Severity) | Guo et al. (2005) | O'Brien et al. (2003) | Sakatis et al. (2012) | Suzuki et al. (2010) | Type of DILI
8 | CN(C)[C@@H]1C(O)=C(C(N)=O)C(=O)[C@@]2(O)C(O)=C3C(=O)c4c(O)cccc4[C@@](C)(O)[C@H]3C[C@@H]12 [Tetracycline] | POS | High DILI concern | POS | 2 | less DILI concern | 3 | Moderately | Hepatotoxic | 1 | Hepatocellular injury
9 | CC(C)NCC(O)COc1cccc2[nH]ccc12 (centres unmarked) [Pindolol] | NEG | DILI negative | NEG | 0 |  |  |  |  |  | Non-hepatotoxic
10 | CC(N/C(=N\C#N)Nc1ccncc1)C(C)(C)C (centres unmarked) [Pinacidil] | NEG | DILI negative | NEG |  |  |  |  |  |  | Non-hepatotoxic
11 | CN(C)CCN(Cc1cccs1)c1ccccn1 [Methapyrilene] | NEG | DILI negative | NEG |  |  |  |  |  |  | Non-hepatotoxic
12 | C[C@]12CCC(=O)C=C1CC[C@@H]1[C@@H]2[C@@H](O)C[C@@]2(C)[C@H]1CC[C@]2(O)C(=O)CO [Hydrocortisone] | NEG | DILI negative | NEG | 0 |  |  |  |  |  | Non-hepatotoxic

Same assay, conditions: in vivo; cited from earlier work

Row | Compound | Xu et al. (2008)
13 | CN(C)[C@@H]1C(O)=C(C(N)=O)C(=O)[C@@]2(O)C(O)=C3C(=O)c4c(O)cccc4[C@@](C)(O)[C@H]3C[C@@H]12 [Tetracycline] | Positive
14 | CC(C)NCC(O)COc1cccc2[nH]ccc12 (centres unmarked) [Pindolol] | Negative
15 | C[C@]12CCC(=O)C=C1CC[C@@H]1[C@@H]2[C@@H](O)C[C@@]2(C)[C@H]1CC[C@]2(O)C(=O)CO [Hydrocortisone] | Negative

Test system: not given
Settings: human, in vivo; cited from earlier work

Row | Compound | Cmax
16 | CN(C)C(=O)C(CCN1CCC(O)(c2ccc(Cl)cc2)CC1)(c1ccccc1)c1ccccc1 [Loperamide] | 7.8 nM

Same assay, conditions: therapeutic total cmax; ref PMID; cited from earlier work

Row | Compound | Cmax
17 | CN1CCN(C2=Nc3cc(Cl)ccc3Nc3ccccc32)CC1 [Clozapine] | 2450 nM
18 | CC(C)NCC(O)COc1cccc2[nH]ccc12 (centres unmarked) [Pindolol] | 270 nM
19 | CC/C(=C(\c1ccccc1)c1ccc(OCCN(C)C)cc1)c1ccccc1 [Tamoxifen] | 160 nM
20 | COCCOC(=O)C1=C(C)NC(C)=C(C(=O)OC(C)C)C1c1cccc([N+](=O)[O-])c1 (centres unmarked) [Nimodipine] | 110 nM
21 | COC(=O)C1=C(C)NC(C)=C(C(=O)OCCN(C)Cc2ccccc2)C1c1cccc([N+](=O)[O-])c1 (centres unmarked) [Nicardipine] | 80 nM
22 | CC(N/C(=N\C#N)Nc1ccncc1)C(C)(C)C (centres unmarked) [Pinacidil] | 290 nM
23 | CCN(CC)C(=O)N1CCN(C)CC1 [Diethylcarbamazine] | 1630 nM
24 | NCCCC[C@H](N[C@@H](CCc1ccccc1)C(=O)O)C(=O)N1CCC[C@H]1C(=O)O [Lisinopril] | 660 nM
25 | CN(C)CCN(Cc1cccs1)c1ccccn1 [Methapyrilene] | 170 nM
26 | CN(C)CCC(c1ccc(Br)cc1)c1ccccn1 (centres unmarked) [Brompheniramine Maleate] | 27 nM
27 | CCC(=O)OCC(=O)[C@@]1(OC(=O)CC)[C@@H](C)C[C@H]2[C@@H]3CCC4=CC(=O)C=C[C@]4(C)[C@@]3(Cl)[C@@H](O)C[C@@]21C [Beclomethasone Dipropionate] | 0.15 nM
28 | C[C@]12CCC(=O)C=C1CC[C@@H]1[C@@H]2[C@@H](O)C[C@@]2(C)[C@H]1CC[C@]2(O)C(=O)CO [Hydrocortisone] | 840 nM

Test system: not given
Settings: ref DrugBank and Prescribers' Digital Reference database; cited from earlier work

Row | Compound | Extent of hepatic metabolism
29 | CN1CCN(C2=Nc3cc(Cl)ccc3Nc3ccccc32)CC1 [Clozapine] | Extensive
30 | CC/C(=C(\c1ccccc1)c1ccc(OCCN(C)C)cc1)c1ccccc1 [Tamoxifen] | Extensive
31 | CN(C)CCN(Cc1cccs1)c1ccccn1 [Methapyrilene] | Moderate
32 | CC(C)NCC(O)COc1cccc2ccccc12 (centres unmarked) [Propranolol] | Extensive

Test system: PHH 2D sandwich cultures
Settings: 100× cmax, 24 h, high content imaging; ref Xu et al., 2008; cited from earlier work

Row | Compound | hepatotoxicity detection in 2D sandwich cultures of PHH
33 | NCCCC[C@H](N[C@@H](CCc1ccccc1)C(=O)O)C(=O)N1CCC[C@H]1C(=O)O [Lisinopril] | liver toxicity was not recognized

Same assay, conditions: PHH 2D sandwich cultures, 100x Cmax; ref Xu 2008; cited from earlier work

Row | Compound | 2Dsw (Xu 2008) 100x
34 | CC(C)NCC(O)COc1cccc2[nH]ccc12 (centres unmarked) [Pindolol] | Negative
35 | CC(C)NCC(O)COc1ccc(CC(N)=O)cc1 (centres unmarked) [Atenolol] | Negative
36 | COCCOC(=O)C1=C(C)NC(C)=C(C(=O)OC(C)C)C1c1cccc([N+](=O)[O-])c1 (centres unmarked) [Nimodipine] | Positive
37 | NS(=O)(=O)c1cc(C(=O)O)c(NCc2ccco2)cc1Cl [Furosemide] | Negative
38 | CC(N/C(=N\C#N)Nc1ccncc1)C(C)(C)C (centres unmarked) [Pinacidil] | Negative
39 | C[C@]12CCC(=O)C=C1CC[C@@H]1[C@@H]2[C@@H](O)C[C@@]2(C)[C@H]1CC[C@]2(O)C(=O)CO [Hydrocortisone] | Negative
